Consider 5 molecules from patent US11304956B2, “Use of 7-bromo-5-(O-chlorophenyl)-3-propoxy-1,2-dihydro-3H-1,4-benzodiazepin-2-one for inhibition of neuropathic pain and seizures of different etiology” (priority 2016, dated 2022).

For assay [1], the system named is pentylenetetrazole-induced convulsions. Conditions: literature data; interval in brackets; cited from earlier work.
The test system of a further assay is MES-induced seizures. As to conditions: literature data; interval in brackets; cited from earlier work.
In assay [2] the test system is thermal tail flick test in rats. In words: Model of thermal stimulation (tail-flick). In kind it is in vivo. As to conditions: n=10. The source says:
The problem was solved by experimental study of the antinociceptive action of the test compound 1 on the model of NP in rats and on the model of pain with the participation of central mechanisms, in particular, thermal tail flick test in rats. Based on the available data on the positive response of constant pain to anticonvulsants in the acute and paroxysmal phase and considering structure 1, we performed an evaluation of the anticonvulsant action of the compound on models of pentamethylenetetrazol-induced convulsions and seizures caused by maximal electroshock (MES). We have taken into account the possible side reaction (ulcerogenic effect) of the compound in experimental animals, expressed in the formation of defects in the mucous membrane of the gastrointestinal tract or in provocation of already existing peptic ulcer relapses. The probability of ulcers formation of medicinal origin is especially high during administration of non-steroidal anti-inflammatory drugs in high doses and in combination with their long-term use in the form of tablets.
A more pronounced effect was after parenteral administration (see Table 2). Control: solvent (twin, distilled water, pH-corrector). Results of the study of Compound 1 and ketorolac analgesic effects on the model of thermal stimulation (tail-flick) as degree of pain sensitivity threshold increase in relation to the initial level (%), n=10, are given in Table 2.

For assay [3] the following is noted: according to the literature data for ketorolac; cited from earlier work.
For assay [4], the system named is model of neuropathic pain in rats. Nature of the assay: Model of neuropathic pain (sciatic nerve ligation), threshold of pain sensitivity by dolorimeter. It counts as in vivo, male Wistar rats. Conditions: for Changes in the threshold of pain perception, regarding healthy limb: damaged vs healthy limb before administration (baseline); for Threshold of pain sensitivity, damaged limb / Threshold of pain sensitivity, healthy limb: day 14 after ligation, before administration (baseline), M±m, n=10; for Pain perception threshold changes, regarding pathology before administration of compounds / Threshold of pain sensitivity 2 hours after compounds administration: 2 hours; for Threshold of pain sensitivity 2 hours after compounds administration: damaged limb. Here is the method: An evaluation of the antinociceptive action of the test compound (1) on a model of neuropathic pain was carried out on 50 male Wistar rats weighing 270-310 g. The model of neuropathic pain was reproduced by ligation of the sciatic nerve at the level of the upper third of the thigh at the level of the popliteal fossa higher than the site of its trifurcation by N. tibialis, N. peroneus and N. suralis (see Mironov A. N. et al. Guidelines for conducting preclinical studies of drugs. Part one.—Moscow 2012. p. 197-219). The development of the pathological process lasted 14 days. The degree of hyperalgesia was determined using a dolorimeter (Dolorimeter Baseline, USA) by determining the threshold of pain sensitivity (TPS)—the minimum pressure on the lower surface of the rat's foot (g/mm^2), which caused pain in the animal (vocalization and/or withdrawal of the foot). Each animal was given 5 attempts; the threshold value was taken with such a pressure force, which caused a positive response in at least one attempt. The threshold of pain sensitivity was compared on intact and damaged limbs on day 14 after ligation (pathology without treatment), as well as on the injured limb after 2 hours (peak of action) after the drugs administration. The test compound and the reference drug (ketorolac) were administered intragastrally (as gavage) once at doses of 0.5 and 3 mg/kg. Sciatic nerve ligation in animals caused the development of neuropathic pain syndrome, which manifested itself in behavioral reactions of the rat and lowering the threshold of pain sensitivity by an average of 44-48% (see Table 1). The analgesic effect of Compound 1 compared with ketorolac under the conditions of their intragastral administration on the model of neuropathic pain in rats (M±m, n=10, where n is the number of animals in the experiments) is shown in Table 1.

The test system of assay [5] is pentylenetetrazole-induced convulsions. In words: Pentylenetetrazole-induced seizures. In kind it is in vivo, non-linear male mice. As to conditions: mice; subcutaneously; dose-effect relationship of the seizure agent. The text has this:
In many cases, the presence of anticonvulsant (antiepileptic) effect of the compounds correlates with analgesic properties on corresponding models of neuralgia. As a general step is a primary screening of new anticonvulsant compounds on rodents with the help of pentylenetetrazole test and MES (maximal electroshock seizures) as they have a qualitative difference in development and manifestations of seizures. It is believed that the compound ability to prevent the MES-induced seizures is connected with impulse spread inhibition throughout the central nervous system. It is believed that the ability to prevent the MES-induced seizures development indicates the potential efficacy of the compound in the preventing propagation of a pulse along the neural tissue (see Tompson E. Medicines. Bioscreening/Under the editorship of A. V. Stefanova.-K.: Avitsenna, 1998.—250 p.).
The experiments were performed on non-linear male mice weighing 19-29 g. Pentylenetetrazole was administered subcutaneously in the cervical region of the back. […]
For MES-induced seizures experimental animals were exposed to electric stimulation through the corneal electrodes (50 Hz, 50 mA for mice during 0.2 s). The number of animals with the maximum tonic extension of the hind limbs, which occurs in almost 100% of the animals in the control group, was calculated. […]

The next assay deals with formalin test in mice. Nature of the assay: Formalin test (licking time of the injected paw). It counts as in vivo, white male non-linear mice. Conditions: 10.00 mg/kg intraperitoneally 40 min before formalin.
Assay [6] concerns carrageenan rat paw edema. Nature of the assay: Carrageenan rat paw edema. In kind it is in vivo, male white rats. Conditions: 10.0 mg/kg intraperitoneally 40 min before carrageenan. The text has this: Given the fact that Compound 1 affects not only the painful, but also the inflammatory phase, we undertook an in-depth study of its anti-inflammatory effect. The most common screening method of anti-inflammatory activity is the model of inflammatory edema of the rat hind paw, induced by the subplantar administration of various phlogogenic agents. Under the conditions of carrageenan administration, a sufficiently pronounced edema reaction is observed, which slowly develops and persists for a long time. The maximum size of edema is observed in 2-4 hours.
The anti-inflammatory properties of the test compounds were studied in the model of carrageenan rat paw edema. Male white rats weighing 150-180 g were used in the experiments. Before the administration of the experimental substances, the volumes of the rats' paws subsequently injected by phlogogen were measured. The test compounds and the reference drug—diclofenac-sodium, were administered intraperitoneally 40 minutes prior the inflammation induction. The control group of the rats received an equivalent amount of physiological solution in the emulsion with Tween-80. Acute aseptic inflammation was induced by a 1% aqueous solution of 0.1 ml)—carrageenan injection under plantar aponeurosis of the hind paw of animals of the experimental and control groups (see Trinus F. P. Nonsteroidal anti-inflammatory drugs/F. P. Trinus, N. A. Mohort, B. M. Klebanov//K., 1975, pp. 204-231., Winter C. A. Carrageenin—induced edema in hind paw of the rat as an assay for antiinflammatory drugs/C. A. Winter, E. A. Risley, G. V. Nuss//Proc. Soc. Exp. Biol. Med.—1962.—Vol. 111.—P. 544-547). The inflammatory reaction significance was evaluated after two and four hours after the phlogogen injection. Registration of edema size was carried out by mechanical measurement of foot volume in dynamics according to Zakharevsky A. S. (see Zaharevskiy A. S. The influence of some indole derivatives on the nervous system. Diss. cand. med. science/Zaharevskiy Aleksandr Stepanovich-Minsk.—1969.—78-80 p.). The edema extent was estimated according to the difference in volume between the swollen paw and the paw before inflammation induction. The anti-inflammatory efficacy of the test compounds was determined as the ability of the test compounds to suppress the inflammatory response in the experimental animals compared to the control animals and expressed as a percentage. The calculation was carried out according to the following formula:
The percentage of inflammation suppression=(ΔVκ−ΔV ? /ΔVκ)·100%,
where: ΔVκ—the average increase in the volume of the swollen paw in the control;
ΔV ? —the average increase in the volume of the swollen paw in animals injected by experimental substances.

`NCC1(CC(=O)O)CCCCC1` [Gabapentin, gabapentin]: in assay [1], the “Anticonvulsive activity (ED50), Pentylenetetrazole” value is recorded as 32 (50-200) mg/kg. In the assay on MES-induced seizures, the “Anticonvulsive activity (ED50), MES” value is reported as 19 (16-24) mg/kg.
For `O=C(c1ccccc1)c1ccc2n1CCC2C(=O)O` (stereo not drawn) [Ketorolac, ketorolac], the “Degree of pain sensitivity threshold increase in relation to the initial level” value in assay [2] (0.5 mg/kg orally, 1 hour) is given as “+7.5%”; in assay [2] (0.5 mg/kg orally, 2 hours), “+14.6%”; in assay [2] (0.5 mg/kg orally, 4 hours), “+28.6%”; in assay [2] (0.5 mg/kg orally, 6 hours), “+12.1%”; in assay [2] (3 mg/kg orally, 1 hour) it was “+43.4%”; in assay [2] (3 mg/kg orally, 2 hours), “+75.7%”. In addition, the “Degree of pain sensitivity threshold increase in relation to the initial level” value is “+65.7%” in assay [2] (3 mg/kg orally, 4 hours) and “+28.1%” in assay [2] (3 mg/kg orally, 6 hours). Also, the “ED50 (analgesic effect)” value in assay [3] was 3 mg/kg. For the same molecule, the results for the “Changes in the threshold of pain perception, regarding healthy limb” value in assay [4] (0.5 mg/kg group) and in assay [4] (3 mg/kg group) were −47.3 ± 3.9% and −45.7 ± 3.5%, respectively. The “Threshold of pain sensitivity, damaged limb” value is 287.9 ± 19.85 g/mm^2 in assay [4] (0.5 mg/kg group) and 296.4 ± 19.6 g/mm^2 in assay [4] (3 mg/kg group). In addition, the “Threshold of pain sensitivity, healthy limb” value in assay [4] (0.5 mg/kg group) was 550.0 ± 19.0 g/mm^2; in assay [4] (3 mg/kg group), 547.1 ± 15.1 g/mm^2. Further, the “Pain perception threshold changes, regarding pathology before administration of compounds” value was “+24.6 ± 5.2%” in assay [4] (0.5 mg/kg intragastrally once); “+24.6%” in assay [4] (0.5 mg/kg intragastrally once, listed as ketorolac); “+70.1 ± 6.2%” in assay [4] (3 mg/kg intragastrally once); “+70.1%” in assay [4] (3 mg/kg intragastrally once, listed as ketorolac). For the same molecule, the “Threshold of pain sensitivity 2 hours after compounds administration” value in assay [4] (0.5 mg/kg intragastrally once) amounted to 355.0 ± 19.5 g/mm^2; in assay [4] (3 mg/kg intragastrally once) it was 501.4 ± 34.9 g/mm^2.
Regarding `CC(C)C[C@H](CN)CC(=O)O` [Pregabalin, pregabalin], in assay [1], the “Anticonvulsive activity (ED50), Pentylenetetrazole” value is recorded as 31 (16-62) mg/kg. For the same molecule, in the assay on MES-induced seizures, the “Anticonvulsive activity (ED50), MES” value is reported as 73 (57-93) mg/kg.
Consider `C1CCc2nnnn2CC1` [pentylenetetrazole, reference compound], for which, in assay [5], the “ED95 of pentylenetetrazole (seizure agent)” value is on record as 120 mg/kg.
Take `O=C(O)Cc1ccccc1Nc1c(Cl)cccc1Cl` [Diclofenac-sodium, diclofenac-sodium, reference compound]: the “I phase, % effect (decrease in the time of licking of the paw)” value in the assay on formalin test in mice (phase 0-5 min) worked out at 51.00 ± 11.64 %. The “II phase, effect (decrease in the time of licking of the paw)” value in the assay with formalin test in mice (phase 15-40 min) was 53.60 ± 11.02. In assay [6], the “Inhibition of edema in 2 hours (%)” value was 43.0 ± 7.0 % and the “Inhibition of edema in 4 hours (%)” value worked out at 57.10 ± 8.3 %.
